Earlier results, collected in article PMC13130965, “An Integrated Approach Combining Regulatory Tests in tg(cyp19a1b:GFP) Zebrafish Embryos to Assess Toxicity, Developmental Effects, and Estrogenic Activity of Chemicals: A Case Study with Bisphenol A Substitutes” (Environmental Science & Technology, 2026).

Conditions: experimental value; ref Epi-Suite (US-EPA); cited from earlier work

In the case of `CC(C)(c1ccc(O)cc1)c1ccc(O)cc1` [BPA, 4-[2-(4-hydroxyphenyl)propan-2-yl] phenol], the Water solubility is given as 300 µg/mL.
